# Assay results: patent publication US11230526B1, “Cylcoalkenyl derivatives useful as agonists of the GPR120 and/or GPR40 receptors” (Janssen Pharmaceutica NV, priority 2018, dated 2022)
# Values joined by “and” are separate entries in the source; they are usually repeats but may differ in a detail not shown here. Equal values may be shown once.
# Experiments:
# Format in all cases: cell-based
# human GPR40 = target: T1, human GPR40 (Homo sapiens, UniProt O14842); assay: GPR40 calcium flux assay, human GPR40; conditions: HEK293 cells stably expressing GPR40; table does not say human or rat
# T1 construct: expressed in transfected cells
# Procedure, shortened: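 Cells preincubated 1 h at 37° C. in HBSS, 20 mM HEPES, 0.1% BSA, then Fluo 8 calcium dye 30 min at 37° C. and 15 min at room temperature.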
# Human GPR120 short form = target: T2, Human GPR120 short form (Homo sapiens, UniProt Q5NUL3); assay: Human GPR120 calcium flux assay, Procedure Calcium B (4200 cells/well)
# T2 construct: expressed in transfected cells
# T2 sequence (Q5NUL3 1-361): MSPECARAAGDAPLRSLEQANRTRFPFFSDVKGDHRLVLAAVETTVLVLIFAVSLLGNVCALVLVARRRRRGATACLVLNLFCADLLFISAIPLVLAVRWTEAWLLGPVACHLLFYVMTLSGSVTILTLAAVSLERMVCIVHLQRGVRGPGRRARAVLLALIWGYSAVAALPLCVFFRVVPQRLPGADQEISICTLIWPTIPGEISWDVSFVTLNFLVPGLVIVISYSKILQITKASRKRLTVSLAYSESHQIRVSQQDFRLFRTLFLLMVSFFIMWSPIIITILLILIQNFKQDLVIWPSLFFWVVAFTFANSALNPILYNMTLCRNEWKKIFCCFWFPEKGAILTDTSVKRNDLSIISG
# Procedure, shortened: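 Agonist EC50 came from a four-parameter fit of RFU (Fmax−Fmin) read over 300 s on FLIPR. Cells were HEK293 stably transfected with human GPR120 (NM_001195755.1) at 4200 per well, serum-starved 1 h and loaded with Fluo-4 NW dye with probenecid before ligand addition.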
# [1] = target: T3, long form of human GPR120 (Homo sapiens, UniProt Q5NUL3); assay: Human GPR120 DiscoveRx PathHunter Beta-Arrestin assay, Procedure β-arrestin A
# T3 construct: host or cells: PathHunter CHO-K1 GPR120 β-Arrestin Cell Line
# Source text: Human GPR120 DiscoveRx PathHunter® Beta-Arrestin Assay Assay Principle:
# The binding of an agonist (medium/long chain fatty acids or small molecule agonists) to the G-protein-coupled receptor GPR120 activates phospholipase C, leading to release of intracellular Ca^+2 through the generation of inositol 1,4,5-trisphosphate (InsP3 or IP3). GPR120 activation can also trigger intracellular signaling via recruitment of Beta-Arrestin. In the present method, agonist-induced activation of the human GPR120 receptor is monitored through the use of PathHunter® CHO-K1 GPR120 Beta-Arrestin Cell Line engineered by DiscoveRx, as detailed below. The cell lines are designed to co-express both the ProLink/Enzyme Donor (PK)-tagged GPCR and the Enzyme […] (EA)-tagged Beta-Arrestin fusion proteins. Upon GPR120 receptor stimulation/activation, the EA-tagged Beta-Arrestin portion is translocated to the tagged receptor, where the two enzyme fragments are brought within close proximity. Under these conditions, these fragments can interact and form an active Beta-gal enzyme complex through Enzyme Fragment Complementation (EFC). This active Beta-gal complex can enzymatically hydrolyse the substrate to produce a detectable light signal; therefore, activation as a function of agonist concentration can be expressed as an EC50 value to determine relative compound activities. This in vitro assay therefore serves to assess compound agonist activity of the GPR120.
# In Procedure β-arrestin A, the cell used were PathHunter® CHO-K1 GPR120 β-Arrestin Cell Line, expressing the long form of human GPR120 (Genbank accession number NM_181745), with 3000 cells per well.
# The selected CHO-K1 GPR120 β-Arrestin cells were cultured in Ham's F12 media supplemented with 10% fetal bovine serum (FBS), 1% Glutamine, 1×p/s, 800 μg/mL G418 and 300 μg/mL Hygromycin B (for selection). Cell stocks were maintained and grown in a sub-confluent state using standard cell culture procedures. The day before the experiment, the cells were harvested with non-enzymatic cell dissociation buffer and re-suspended in complete growth media at the desired concentration. A Corning 384-plate was then seeded with the proper number of cells in a volume of 25 μL, per well. The seeded plates were incubated overnight at 37° C.
# On the day of the experiment, the Assay Buffer containing (a) HBSS with Ca^++ and Mg^++, (b) 20 mM HEPES, and (c) 0.1% BSA stabilizer (pH 7.4) was prepared. The growth medium was gently removed from the cell plates and 20 μL of Assay Buffer added to each well. The plate was then incubated at 37° C. for 60 min. Test compounds were serially diluted in Assay Buffer to desired concentrations (more particularly to one or more of the following μM concentrations: 25, 12.5, 6.25, 3.12, 1.56, 0.78, 0.39, 0.19, 0.10, 0.05, 0.02, 0.01). Five μL of compound dilution was then added to each well and the plate incubated at 37° C. for 90 min. The detection reagents were prepared according to the manufacture's instruction. Twelve μL of the detection reagents were added to each well and the plate incubated at room temperature for 60 min.
# The plates were read on an EnVision instrument, using Protocol name: Luminescence, Plate type: 384 Costar, Measurement height: 3 mm, Measurement time: 1 s, Aperture: 384 Plate aperture. The % Activity relative to the positive control was calculated using the following equation:
# The % Activity values were plotted versus the concentration of test compound and fitted to a sigmoidal dose-response curve with a Hill slope=1 (fixed value) using nonlinear regression with GraphPad Prism 5.0 to calculate the EC50 values. The Fitting Equation was: Y=Bottom+(Top-Bottom)/(1+10^((Log EC50−X)*HillSlope)), where X is the log of the concentration and Y is the response.
# T3 sequence (Q5NUL3 1-377 isoform Q5NUL3-1): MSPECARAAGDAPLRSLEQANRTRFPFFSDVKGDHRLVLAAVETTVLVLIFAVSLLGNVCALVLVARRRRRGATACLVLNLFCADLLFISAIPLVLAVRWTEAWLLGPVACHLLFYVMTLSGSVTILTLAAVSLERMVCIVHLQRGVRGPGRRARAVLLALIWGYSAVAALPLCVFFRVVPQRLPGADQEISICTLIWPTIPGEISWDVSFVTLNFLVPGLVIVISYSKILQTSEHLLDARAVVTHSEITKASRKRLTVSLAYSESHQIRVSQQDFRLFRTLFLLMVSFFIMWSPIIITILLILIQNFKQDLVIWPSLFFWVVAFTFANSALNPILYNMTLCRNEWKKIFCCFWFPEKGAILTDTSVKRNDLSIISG
# T3 sequence (P32121 whole entry partner): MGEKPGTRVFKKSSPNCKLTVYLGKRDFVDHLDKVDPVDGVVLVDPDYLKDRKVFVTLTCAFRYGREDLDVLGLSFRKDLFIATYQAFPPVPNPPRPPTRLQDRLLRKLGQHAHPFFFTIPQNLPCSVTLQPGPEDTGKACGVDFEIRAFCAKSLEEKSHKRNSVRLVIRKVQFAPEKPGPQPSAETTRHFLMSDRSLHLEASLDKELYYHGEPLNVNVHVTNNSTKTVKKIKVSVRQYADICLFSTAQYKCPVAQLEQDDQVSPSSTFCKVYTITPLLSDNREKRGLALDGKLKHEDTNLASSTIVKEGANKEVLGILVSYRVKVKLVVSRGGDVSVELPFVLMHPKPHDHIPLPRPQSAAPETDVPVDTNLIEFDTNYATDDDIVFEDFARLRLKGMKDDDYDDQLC
# T1 sequence (O14842 whole entry): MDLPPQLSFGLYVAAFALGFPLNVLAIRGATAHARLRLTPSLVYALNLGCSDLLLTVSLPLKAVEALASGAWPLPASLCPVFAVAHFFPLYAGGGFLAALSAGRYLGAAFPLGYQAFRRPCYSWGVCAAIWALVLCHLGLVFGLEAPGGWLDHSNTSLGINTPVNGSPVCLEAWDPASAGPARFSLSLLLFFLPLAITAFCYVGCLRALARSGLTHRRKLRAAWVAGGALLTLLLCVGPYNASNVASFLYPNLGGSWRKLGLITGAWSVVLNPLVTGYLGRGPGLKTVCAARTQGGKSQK
SMILES,EC50 (human GPR40),EC50 (Human GPR120 short form),EC50 [1]
Cc1c(CCC(=O)O)ccc(OCC2=C(c3ccc(F)cc3)CC(F)(F)C2)c1C [Compound 10],> 5000 nM,24 nM,155 nM
"CC(Cc1ccc(OCC2=C(c3ccc(Cl)cc3)CCC2)c(F)c1)C(=O)O (stereo not drawn) [Compound 34, 3-[4-[[2-(4-chlorophenyl)cyclopenten-1-yl]methoxy]-3-fluoro-phenyl]-2-methyl-Propanoic Acid]",> 5000 nM,–,680 nM
"Cc1cc(CC(C)C(=O)O)ccc1OCC1=C(c2ccc(Cl)cc2)CCC1 (stereo not drawn) [Compound 36, 3-[4-[[2-(4-chlorophenyl)cyclopenten-1-yl]methoxy]-3-methyl-phenyl]-2-methyl-Propanoic Acid]",> 5000 nM,193 nM,235 nM
Cc1cc(CCC(=O)O)ccc1OCC1=C(c2ccc(F)cc2)CCC1 [Compound 42],> 5000 nM,61 nM,340 nM
"O=C(O)CCc1ccc(OCC2=C(c3ccc(F)cc3)CCC2)cc1 [Compound 43, 3-[4-[[2-(4-fluorophenyl)cyclopenten-1-yl]methoxy]phenyl]Propanoic Acid]",3030 nM,207 nM,208 nM
"O=C(O)CCc1cc(F)c(OCC2=C(c3cccs3)CCC(F)(F)C2)c(F)c1 [Compound 559, 3-[4-[[5,5-difluoro-2-(2-thienyl)cyclohexen-1-yl]methoxy]-3,5-difluoro-phenyl]Propanoic Acid]",–,238 nM,409 nM
"Cc1ccc(C2=C(COc3ccc(CCC(=O)O)cc3C)CC(F)(F)CC2)s1 [Compound 561, 3-[4-[[5,5-difluoro-2-(5-methyl-2-thienyl)cyclohexen-1-yl]methoxy]-3-methyl-phenyl]Propanoic Acid]",–,71 nM,120 nM
"Cc1c(CCC(=O)O)ccc(OCC2=C(c3ccc(Cl)s3)CCC(F)(F)C2)c1C [Compound 563, 3-[4-[[2-(5-chloro-2-thienyl)-5,5-difluoro-cyclohexen-1-yl]methoxy]-2,3-dimethyl-phenyl]Propanoic Acid]",–,120 nM,237 nM
"Cc1ccc(C2=C(COc3ccc(CCC(=O)O)c(C)c3C)CC(F)(F)CC2)s1 [Compound 564, 3-[4-[[5,5-difluoro-2-(5-methyl-2-thienyl)cyclohexen-1-yl]methoxy]-2,3-dimethyl-phenyl]Propanoic Acid]",–,90 nM,176 nM
"Cc1c(CCC(=O)O)ccc(OCC2=C(c3ccc(Cl)cc3)CC(F)(F)CC2)c1C [Compound 568, 3-[4-[[2-(4-chlorophenyl)-4,4-difluoro-cyclohexen-1-yl]methoxy]-2,3-dimethyl-phenyl]Propanoic Acid]",–,202 nM,363 nM

# The remaining lines, values ahead:
EC50 (human GPR40),EC50 (Human GPR120 short form),EC50 [1],SMILES
> 5000 nM,461 nM,512 nM,"Cc1cc(CCC(=O)O)cc(Br)c1OCC1=C(c2ccc(Cl)cc2)CCC1 [Compound 30, 3-[3-bromo-4-[[2-(4-chlorophenyl)cyclopenten-1-yl]methoxy]-5-methyl-phenyl]Propanoic Acid]"
131 nM and 182 nM,215 nM,491 nM,"O=C(O)CCc1ccc(OCC2=C(c3ccc(Cl)cc3)CCC2)cc1C(F)(F)F [Compound 39, 3-[4-[[2-(4-chlorophenyl)cyclopenten-1-yl]methoxy]-2-(trifluoromethyl)phenyl]Propanoic Acid]"
> 5000 nM,–,788 nM,"O=C(O)CCc1ccc(OCC2=C(c3ccc(Cl)cc3)CCC2)cc1-c1ccccc1 [Compound 136, 3-[4-[[2-(4-chlorophenyl)cyclopenten-1-yl]methoxy]-2-phenyl-phenyl]Propanoic Acid]"
365 nM,–,466 nM,"O=C(O)CCc1ccc(OCC2=C(c3ccc(Cl)cc3)CCC2)cc1Cl [Compound 143, 3-[2-chloro-4-[[2-(4-chlorophenyl)cyclopenten-1-yl]methoxy]phenyl]Propanoic Acid]"
401 nM,–,680 nM,"CCc1cc(OCC2=C(c3ccc(Cl)cc3)CCC2)ccc1CCC(=O)O [Compound 161, 3-[4-[[2-(4-chlorophenyl)cyclopenten-1-yl]methoxy]-2-ethyl-phenyl]Propanoic Acid]"
